These results are taken from patent publication EP3515899B1, “SOLKETAL-ETHERS, PRODUCTION METHOD AND USES THEREOF” (Cepsa S.A.U., priority 2016, dated 2018).

The data set can be described thus: Solubility of additives in diesel at 4°C (visual phase separation). Type of data set: physicochemical. The note with it: for limit of addition to diesel by solubility: conclusion from Example 2. The protocol: Tests for solubility in diesel at 4°C were performed with the effluent of the etherification of solketal with isobutylene. Table 1: Composition of the additive STBE
Three additives were prepared each with a different STBE/SLK ratio (1/3, 1/1 and 3/1 w/w) from […] this effluent. In turn, these additives were added to the same diesel fuel in increasing proportions (2, 10, 20, 30 and 50 % wt.).
Table 5: Results for STBE solubility in diesel at 4°C

On to `CC1(C)OCC(CO)O1` (stereo not shown) [SLK, 2,2-dimethyl-4-hydroxymethyl-1,3-dioxolane, reference compound], for which the “limit of addition to diesel by solubility” value was at most 0.5 % by weight. Moreover, the “solubility in diesel at 4°C” value (0.5 % wt. additive in diesel) is reported as “S”. In addition, the “state of additive in diesel (Fig 1)” value (2% in diesel, photograph) is “phase separation”.
On to `CCC(C)(C)OCC1COC(C)(C)O1` (stereo not shown) [STAE-97, solketal-ter-amyl-ether], for which the “limit of addition to diesel by solubility” value is recorded as “not limited by its solubility with diesel”. For the same compound, the “solubility in diesel at 4°C” value (60 % wt. additive in diesel) is “S”. The “solubility in diesel at 4°C” value (75 % wt. additive in diesel) is reported as “S”. Besides, where the note is “80 % wt. additive in diesel”, the “solubility in diesel at 4°C” value is given as “S”.
